Source: patent publication US20080293721A1, “ARYLTHIOACETAMIDE CARBOXYLATE DERIVATIVES AS FKBP INHIBITORS FOR THE TREATMENT OF NEUROLOGICAL DISEASES” (Burnham Institute for Medical Research, priority 2007, published 2008)

Legend:
[1] = system: primary rat cortical neurons; assay: neurite outgrow with primary rat cortical neurons (FIGS. 4, 5; Sholl analysis); assay type: cell-based; settings: FIG. 4
Text: FIGS. 4 and 5 show the effect of FKBP12 ligands on neurite outgrow with primary rat cortical neurons.

[2] = biological target: FKBP12 (Homo sapiens, UniProt P62942); assay: secondary assays with isothermal titration calorimetry and 2D NMR (FIGS. 2, 3); assay type: binding
Text: The ligand concentration chart refers to the compound having the formula VIII (i.e., p-toluoylthioacetylmorpholine) used as the ligand.

FKBP12, sequence (P62942 whole entry, species assumed): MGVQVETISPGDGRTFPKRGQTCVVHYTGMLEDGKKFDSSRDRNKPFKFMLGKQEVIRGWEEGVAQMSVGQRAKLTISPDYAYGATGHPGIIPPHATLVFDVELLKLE

| Kd [2] | SMILES | effect on neurite outgrow [1] |
| --- | --- | --- |
|  | CC(C)c1ccc(SCC(=O)N2CCOCC2C(=O)OCCCc2cccnc2)cc1 (centres unmarked) [Compound VII, 3-(pyridine-3-yl)propyl 4-(2-(4-isopropylphenylthio)acetyl)morpholine-3-carboxylate] | particularly substantial |
| 4 µM | Cc1ccc(SCC(=O)N2CCOCC2)cc1 [VIII] |  |
